In ChEMBL document CHEMBL4017480, “Discovery and optimization of selective FGFR4 inhibitors via scaffold hopping” (Bioorg Med Chem Lett, 2017):

Tests used:
[1] = target: Fibroblast growth factor receptor 1 (Homo sapiens, UniProt P11362); assay: Inhibition of recombinant human His-tagged FGFR1 cytoplasmic domain (308 to 731 residues) expressed in baculovirus expression system using tyr 04 as substrate measured within 60 mins by Z-LYTE assay
[2] = Stability in mouse plasma assessed as compound remaining at 2 uM measured after 2 hrs by LC-MS/MS analysis; assay type: ADME, cell-free; details: read-out: Stability
[3] = Intrinsic clearance in mouse liver microsomes at 1 uM measured after 60 mins in presence of NADPH by LC-MS/MS analysis; assay type: ADME, microsome; details: read-out: CLH
[4] = Intrinsic clearance in human liver microsomes at 1 uM measured after 60 mins in presence of NADPH by LC-MS/MS analysis; assay type: ADME, microsome; details: read-out: CLH
[5] = target: Fibroblast growth factor receptor 4 (Homo sapiens, UniProt P22455); assay: Inhibition of recombinant human N-terminal His-tagged FGFR4 cytoplasmic domain […] expressed in baculovirus expression system using tyr 04 peptide as substrate measured within 90 mins by Z-LYTE assay
Sequence of Fibroblast growth factor receptor 4 (P22455 whole entry, the tested form may be a part): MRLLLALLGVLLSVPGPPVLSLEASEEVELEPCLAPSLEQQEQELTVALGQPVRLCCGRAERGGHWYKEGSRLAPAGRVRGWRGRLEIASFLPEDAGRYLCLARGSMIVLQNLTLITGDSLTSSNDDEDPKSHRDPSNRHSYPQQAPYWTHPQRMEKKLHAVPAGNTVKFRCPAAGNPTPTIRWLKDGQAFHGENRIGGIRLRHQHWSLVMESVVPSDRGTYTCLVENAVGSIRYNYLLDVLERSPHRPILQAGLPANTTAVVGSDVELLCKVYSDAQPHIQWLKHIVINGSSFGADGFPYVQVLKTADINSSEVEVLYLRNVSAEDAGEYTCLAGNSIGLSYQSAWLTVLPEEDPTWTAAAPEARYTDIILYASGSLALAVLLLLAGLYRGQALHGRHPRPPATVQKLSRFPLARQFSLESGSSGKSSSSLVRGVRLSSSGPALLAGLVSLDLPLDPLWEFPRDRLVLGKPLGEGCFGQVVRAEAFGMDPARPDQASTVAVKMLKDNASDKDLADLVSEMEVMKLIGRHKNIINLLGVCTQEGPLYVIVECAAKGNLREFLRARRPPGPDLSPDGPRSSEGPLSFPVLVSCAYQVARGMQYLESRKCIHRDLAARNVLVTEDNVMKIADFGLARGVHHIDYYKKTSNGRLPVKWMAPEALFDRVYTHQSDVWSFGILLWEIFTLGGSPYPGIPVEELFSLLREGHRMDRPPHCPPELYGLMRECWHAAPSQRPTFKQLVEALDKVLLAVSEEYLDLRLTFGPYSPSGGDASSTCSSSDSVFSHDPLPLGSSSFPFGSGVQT

[6] = Stability in human plasma assessed as compound remaining at 2 uM measured after 2 hrs by LC-MS/MS analysis; assay type: ADME, cell-free; details: read-out: Stability

Sequence of Fibroblast growth factor receptor 1 (P11362 whole entry, the tested form may be a part): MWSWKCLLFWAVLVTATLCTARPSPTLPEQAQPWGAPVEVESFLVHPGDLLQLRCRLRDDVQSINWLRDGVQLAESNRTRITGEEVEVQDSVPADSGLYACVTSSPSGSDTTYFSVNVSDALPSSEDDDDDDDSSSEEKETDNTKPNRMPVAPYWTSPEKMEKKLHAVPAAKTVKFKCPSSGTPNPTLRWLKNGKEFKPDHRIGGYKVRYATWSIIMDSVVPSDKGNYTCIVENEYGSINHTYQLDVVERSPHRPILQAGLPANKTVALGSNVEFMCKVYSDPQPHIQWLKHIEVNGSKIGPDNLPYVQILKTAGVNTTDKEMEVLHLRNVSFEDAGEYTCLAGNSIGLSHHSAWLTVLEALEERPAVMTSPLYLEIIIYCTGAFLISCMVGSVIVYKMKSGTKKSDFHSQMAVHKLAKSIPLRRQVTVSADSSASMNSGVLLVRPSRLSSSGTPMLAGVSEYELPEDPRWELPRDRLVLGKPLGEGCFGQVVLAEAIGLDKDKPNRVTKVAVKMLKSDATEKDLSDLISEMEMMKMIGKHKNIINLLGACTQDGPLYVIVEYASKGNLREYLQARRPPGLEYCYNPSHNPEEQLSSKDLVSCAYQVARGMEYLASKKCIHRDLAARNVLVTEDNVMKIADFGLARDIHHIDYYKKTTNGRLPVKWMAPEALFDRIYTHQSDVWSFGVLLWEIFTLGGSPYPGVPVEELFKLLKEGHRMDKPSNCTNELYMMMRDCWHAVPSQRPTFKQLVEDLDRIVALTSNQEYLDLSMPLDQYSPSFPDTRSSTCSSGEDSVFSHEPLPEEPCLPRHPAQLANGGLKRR

| IC50 [1] | remaining at 2 h, 2 µM [2] | CLint scaled at 1 µM [3] | CLint scaled at 1 µM [4] | IC50 [5] | remaining at 2 h, 2 µM [6] | SMILES |
| --- | --- | --- | --- | --- | --- | --- |
| 2.9 µM | 0.1% | 180 mL/min/kg | 120 mL/min/kg | – | – | C=CC(=O)Nc1cc(N2CCN(CC)CC2)cc(C)c1Nc1ncc(OCc2c(F)c(OC)cc(OC)c2F)cn1 |
| 4.8 µM | 0.4% | – | – | – | – | C=C(C)C(=O)Nc1cc(N2CCN(CC)CC2)cc(C)c1Nc1ncc(OCc2c(F)c(OC)cc(OC)c2F)cn1 |
| 9.5 µM | 0.3% | 220 mL/min/kg | 265 mL/min/kg | – | – | C=CC(=O)Nc1cc(N2CCN(C(C)=O)CC2)cc(C)c1Nc1ncc(OCc2c(F)c(OC)cc(OC)c2F)cn1 |
| 7.4 µM | – | – | – | 3.5 µM | – | C=CC(=O)N[C@@H]1COC[C@@H]1Nc1ncc(OCc2c(F)c(OC)cc(OC)c2F)cn1 |
| > 10 µM | – | – | – | > 10 µM | – | C=CC(=O)Nc1cccc(C)c1Nc1ncc(OC(C)c2c(Cl)c(OC)cc(OC)c2Cl)cn1 (configuration not stated) |
| 3.3 µM | 96% | 2030 mL/min/kg | 154 mL/min/kg | – | 96% | C=CC(=O)N[C@H]1CCCC[C@H]1Nc1ncc(OCc2c(F)c(OC)cc(OC)c2F)cn1 (racemic) |
| – | 0.2% | – | – | – | – | C=CC(=O)Nc1cccc(C)c1Nc1ncc(OCc2c(Cl)c(OC)cc(OC)c2Cl)cn1 |
| > 10 µM | – | – | – | – | – | C=CC(=O)Nc1cccc(C)c1Nc1ncc(OCc2cc(OC)cc(OC)c2)cn1 |
| 0.06 µM | – | – | – | – | – | C=CC(=O)Nc1ccccc1Nc1ncc(OCc2c(F)c(OC)cc(OC)c2F)cn1 |
| > 10 µM | 100% | 564 mL/min/kg | 46 mL/min/kg | – | 90% | C=CC(=O)N[C@H]1CCOC[C@H]1Nc1ncc(OCc2c(F)c(OC)cc(OC)c2F)cn1 |
